Earlier results in patent US20010036664A1, “L-leucyl-L-leucine methyl ester treatment of donor lypmhocyte infusions in bone marrow transplant patients” (priority 2000, published 2001).

Tests used:
GVHD-inducing T cells = conditions: stem cell toxicity occurs at this concentration
GVHD = conditions: ex vivo treatment of bone marrow grafts; multiple murine models

## COC(=O)[C@H](CC(C)C)NC(=O)[C@@H](N)CC(C)C [LLME, L-leucyl-L-leucine methyl ester]
GVHD-inducing T cells
  concentrations necessary to purge GVHD-inducing T cells: 500 µM
GVHD
  prevention of GVHD: completely prevent GVHD
